In assay [1] the test system is Cardiac muscle cell. The experiment in a line: Cytoprotective effect in rat cardiomyocytes under hypoxia-reoxygenation condition assessed as cell viability at 1 uM by trypan blue exclusion test. Format: functional, cell-based.
In assay [2] the test system is Cardiac muscle cell. The experiment in a line: Cytoprotective effect in rat cardiomyocytes under hypoxia-reoxygenation condition assessed as cell viability at 1 uM by trypan blue exclusion test in presence of etomoxir. Format: functional, cell-based.

Each structure is given as a SMILES string. The source made the active and inactive calls. No cut-off for these calls is given here.

In the case of `Cc1cccc(C)c1O/C=C/C(=O)O`, the result in assay [1] was Active. For the same compound, in assay [2], the outcome was inactive.

For `Cn1ccnc1SCCC(=O)O`, the result in assay [1] was Active. The outcome in assay [2] was inactive.

For the compound `Cn1ccnc1SCCCCC(=O)O`, in assay [1], the result was Active. Moreover, the outcome in assay [2] was inactive.

For the compound `Cc1cccc(C)c1OCCC(=O)O`, the result in assay [1] was Active. The result in assay [2] was inactive.

Regarding `Cn1ccnc1S`, the result in assay [1] was inactive.
